The structures appear in SMILES notation.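 Five concentrations, 48 hours, 96-well plates. GI50 marks 50% less growth.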 Activity calls are given as the source filed them. Cut-off read from the data, not from the text of the source: active = GI50 up to about 1.1 µM and inactive = higher.

Among the test systems are 786-0; HCC 2998; HCT-15; Hs-578T; IGROV-1; M14; MCF7; MOLT-4; NCI-H226; OVCAR-5; PC-3; SK-OV-3; SNB-19; SNB-75; T47D; UACC-257; UO-31; SK-MEL-2.
Common to all, as to assay: inhibition of tumour cell growth, NCI panel, 48 h

For `CCCCCCCc1c(Cl)nc(Cl)nc1Cl`, the GI50 was 3.56 µM (inactive) in the assay with 786-0; 5.81 µM (inactive) with HCC 2998; 3.66 µM in the assay on HCT-15; 6.28 µM (inactive) in the assay with Hs-578T; 2.29 µM (inactive) with IGROV-1; 2.13 µM (inactive) in the assay with M14. The GI50 with MCF7 was 10.4 µM (inactive); with MOLT-4, 1.15 µM (inactive); in the assay on NCI-H226, 2.04 µM (inactive); with OVCAR-5, 8.85 µM (inactive); in the assay on PC-3, 8.28 µM (inactive); with SK-OV-3, 7.43 µM (inactive). The GI50 in the assay on SNB-19 was 11.2 µM (inactive); in the assay with SNB-75, 14.6 µM (inactive); in the assay with T47D it was 12.2 µM (inactive); in the assay on UACC-257 it was 10.4 µM (inactive); with UO-31 it was 5.82 µM (inactive).

As for `Cc1ncc(CO)c(CN)c1O`, the GI50 is > 100 µM (inactive) in the assay with 786-0; > 100 µM (inactive) in the assay with HCC 2998; over 100 µM in the assay with HCT-15; > 100 µM (inactive) in the assay on Hs-578T; > 100 µM (inactive) in the assay with IGROV-1; > 100 µM (inactive) in the assay with M14. Besides, the GI50 with MCF7, in the assay on MOLT-4, in the assay with NCI-H226, in the assay on OVCAR-5, in the assay on PC-3 and in the assay with SK-MEL-2 was > 100 µM (inactive) throughout. In addition, the GI50 with SK-OV-3, in the assay with SNB-19, with T47D, in the assay with UACC-257 and with UO-31 was > 100 µM (inactive) throughout.

Regarding `O=c1[nH]nc(Cc2ccc(Cl)cc2)n1O`, the GI50 with 786-0 was > 100 µM (inactive); with HCC 2998 it was > 100 µM (inactive); with HCT-15, over 100 µM; in the assay on Hs-578T it was > 100 µM (inactive); in the assay on IGROV-1, > 100 µM (inactive); in the assay on M14, > 100 µM (inactive). The GI50 in the assay on MCF7, in the assay with MOLT-4, in the assay with NCI-H226, in the assay on OVCAR-5, in the assay on PC-3 and with SK-MEL-2 was > 100 µM (inactive) in each case. The GI50 with SK-OV-3, with SNB-19, with T47D, with UACC-257 and with UO-31 was > 100 µM (inactive) each time.

Turning to `Cc1cc(C)n(CN(Cn2nc(C)cc2C)c2ccc(N(Cn3nc(C)cc3C)Cn3nc(C)cc3C)cc2)n1`, the GI50 in the assay on 786-0 is 19.3 µM (inactive); in the assay with HCT-15 it was 21.5 µM; with Hs-578T, 18.2 µM (inactive); in the assay with IGROV-1, 31.6 µM (inactive); in the assay with M14, 20 µM (inactive); with MCF7, 20.3 µM (inactive). For the same compound, the GI50 in the assay with MOLT-4 was 28 µM (inactive); with OVCAR-5, 24.7 µM (inactive); in the assay with PC-3, 23.7 µM (inactive); in the assay on SK-MEL-2, 23.1 µM (inactive); in the assay with SK-OV-3, 25.9 µM (inactive); in the assay with SNB-19, 24 µM (inactive). For the same compound, the GI50 is 23.8 µM (inactive) in the assay with T47D, 18.6 µM (inactive) in the assay with UACC-257 and 28.4 µM (inactive) in the assay with UO-31.

`C1=N/CCNCCNCC/N=C/c2ccccc2OCc2cccc(n2)COc2ccccc2/1`: the GI50 is 64.6 µM (inactive) with 786-0; 45.1 µM with HCT-15; 55.3 µM (inactive) with Hs-578T; 52.6 µM (inactive) with IGROV-1; 28.7 µM (inactive) in the assay on M14; 21.2 µM (inactive) with MCF7. Further, the GI50 in the assay with MOLT-4 was 27.4 µM (inactive); in the assay on NCI-H226 it was 66.8 µM (inactive); in the assay on OVCAR-5 it was > 100 µM (inactive); in the assay on PC-3 it was 34 µM (inactive); with SK-MEL-2, > 100 µM (inactive); in the assay on SK-OV-3, > 100 µM (inactive). Further, the GI50 in the assay on SNB-19 was 52.5 µM (inactive); in the assay with SNB-75, 67.9 µM (inactive); with T47D, 57.4 µM (inactive); in the assay on UACC-257, 53.7 µM (inactive); in the assay with UO-31 it was 72.8 µM (inactive).

In the case of `O=C1c2cccc3cccc(c23)C2NCCCN12` (stereo unspecified), the GI50 in the assay on 786-0 is > 100 µM (inactive); in the assay with HCC 2998, 62.5 µM (inactive); with HCT-15 it was over 100 µM; in the assay with Hs-578T it was > 100 µM (inactive); in the assay with IGROV-1, > 100 µM (inactive); in the assay with M14, > 100 µM (inactive). Moreover, the GI50 in the assay with MCF7 is 95.3 µM (inactive); in the assay with MOLT-4 it was 47.3 µM (inactive); with NCI-H226, 52.8 µM (inactive); in the assay with OVCAR-5, > 100 µM (inactive); in the assay with PC-3, > 100 µM (inactive); with SK-OV-3, > 100 µM (inactive). The GI50 in the assay with SNB-19 is > 100 µM (inactive); with SNB-75 it was < 0.01 µM (active); in the assay with T47D it was > 100 µM (inactive); in the assay with UACC-257, > 100 µM (inactive); in the assay on UO-31, 88.5 µM (inactive).

`CSC1=C(C#N)C(=O)N(c2ccc(C)cc2)C(=O)C1C#N` (stereo unspecified): the GI50 in the assay with 786-0 is > 100 µM (inactive); with HCC 2998, > 100 µM (inactive); with HCT-15 it was over 100 µM; in the assay with Hs-578T, 28.6 µM (inactive); with IGROV-1, > 100 µM (inactive); in the assay on M14, > 100 µM (inactive). Moreover, the GI50 in the assay on MCF7, in the assay on MOLT-4, with NCI-H226, in the assay on OVCAR-5, in the assay on PC-3 and in the assay with SK-MEL-2 was > 100 µM (inactive) in each case. The GI50 in the assay on SK-OV-3 was > 100 µM (inactive); in the assay with SNB-19 it was > 100 µM (inactive); in the assay on T47D, 41.2 µM (inactive); with UACC-257, > 100 µM (inactive); with UO-31, > 100 µM (inactive).

As to `OC[C@]1(n2nc3ccccc3n2)OC[C@@H]1c1ccccc1`, the GI50 in the assay on 786-0 is 34.8 µM (inactive); in the assay on HCC 2998 it was > 100 µM (inactive); in the assay on HCT-15, 42.1 µM; in the assay on Hs-578T, 56 µM (inactive); in the assay on IGROV-1, 37.2 µM (inactive); in the assay with M14, 90.6 µM (inactive). Further, the GI50 was 33.7 µM (inactive) in the assay with MCF7; 33.7 µM (inactive) in the assay with MOLT-4; 32.2 µM (inactive) with NCI-H226; 91.4 µM (inactive) with OVCAR-5; 70 µM (inactive) in the assay with PC-3; 34 µM (inactive) in the assay with SK-MEL-2. For the same compound, the GI50 is > 100 µM (inactive) in the assay with SK-OV-3; > 100 µM (inactive) with SNB-19; 36 µM (inactive) with T47D; 93.8 µM (inactive) with UACC-257; 95.3 µM (inactive) in the assay with UO-31.

Take `COC(=O)C12OC3CO[Si](C(C)C)(C(C)C)O[Si](C(C)C)(C(C)C)OC3C1Oc1nc(=O)ccn12` (stereo unspecified): the GI50 with 786-0 was 17.7 µM (inactive); in the assay with HCT-15, 16.5 µM; in the assay with Hs-578T, < 0.01 µM (active); in the assay on IGROV-1, 11.6 µM (inactive); with M14 it was 17.8 µM (inactive); with MCF7, 16 µM (inactive). Further, the GI50 is 12.1 µM (inactive) in the assay with MOLT-4; 15.8 µM (inactive) in the assay on NCI-H226; 15.2 µM (inactive) in the assay with OVCAR-5; 15.3 µM (inactive) in the assay on PC-3; 17.1 µM (inactive) in the assay on SK-MEL-2; 17.3 µM (inactive) in the assay with SK-OV-3. The GI50 in the assay with SNB-19 was 17.3 µM (inactive); in the assay on T47D, 18.8 µM (inactive); with UACC-257 it was 15.6 µM (inactive); in the assay with UO-31 it was 16.3 µM (inactive).

With `C=C[C@@]1(C)CC2CC[C@]3(C)C(C)=CC(=O)CC3[C@]2(C)CC1O` (stereo partly specified), the GI50 in the assay with 786-0 is > 100 µM (inactive); in the assay with HCC 2998 it was > 100 µM (inactive); in the assay with HCT-15, over 100 µM; in the assay with Hs-578T it was > 100 µM (inactive); in the assay on IGROV-1, > 100 µM (inactive); in the assay on M14, > 100 µM (inactive). Moreover, the GI50 was > 100 µM (inactive) in the assay on MCF7; 83.2 µM (inactive) with MOLT-4; > 100 µM (inactive) in the assay on NCI-H226; > 100 µM (inactive) in the assay with OVCAR-5; > 100 µM (inactive) in the assay with PC-3; > 100 µM (inactive) with SK-MEL-2. Besides, the GI50 in the assay on SK-OV-3, in the assay with SNB-19, in the assay with T47D, in the assay with UACC-257 and with UO-31 was > 100 µM (inactive) each time.

For `Oc1ccc(-c2nc3ccccc3s2)cc1`, the GI50 is 27.1 µM (inactive) with 786-0; 36 µM in the assay on HCT-15; 37.7 µM (inactive) with Hs-578T; 25.7 µM (inactive) in the assay on IGROV-1; 44.2 µM (inactive) in the assay on M14; 33.6 µM (inactive) with MCF7. For the same compound, the GI50 was 25.8 µM (inactive) in the assay with MOLT-4; 43.3 µM (inactive) with NCI-H226; 49.8 µM (inactive) in the assay with OVCAR-5; 32.1 µM (inactive) in the assay with PC-3; 20.4 µM (inactive) in the assay with SK-MEL-2; 32.1 µM (inactive) in the assay with SK-OV-3. Besides, the GI50 in the assay with SNB-19 was 55.1 µM (inactive); in the assay with SNB-75, 37.4 µM (inactive); with T47D, 21.5 µM (inactive); in the assay on UACC-257 it was 31 µM (inactive); in the assay with UO-31, 51.5 µM (inactive).

In the case of `COc1ccc([C@@]23Oc4cc(OC)cc(OC)c4[C@]2(O)[C@H](O)[C@H](C(N)=O)[C@H]3c2ccccc2)cc1` [DIDESMETHYLROCAGLAMIDE], the GI50 is < 0.01 µM (active) in the assay with 786-0; < 0.01 µM (active) in the assay on HCC 2998; under 0.0142 µM in the assay with HCT-15; < 0.01 µM (active) with Hs-578T; < 0.01 µM (active) with IGROV-1; < 0.01 µM (active) with M14. Further, the GI50 in the assay with MCF7 was < 0.01 µM (active); in the assay on MOLT-4, < 0.01 µM (active); with NCI-H226, < 0.01 µM (active); in the assay with OVCAR-5 it was 0.0102 µM (active); in the assay with PC-3 it was < 0.01 µM (active); with SK-MEL-2 it was < 0.0106 µM (active). Besides, the GI50 was < 0.01 µM (active) in the assay with SK-OV-3; < 0.01 µM (active) in the assay on SNB-19; < 0.01 µM (active) in the assay with T47D; < 0.0162 µM (active) in the assay on UACC-257; < 0.0161 µM (active) in the assay on UO-31.

The values above are taken from ChEMBL document CHEMBL1201862, “PubChem BioAssay data set” (2004).
